Assay results as given in the Kinase Knowledgebase extract (Sharma et al. 2016).

Target: PIK3CG (human) (UniProt P48736)
Assay: Assessment of PIK3CG Kinase Activity

Sequence of PIK3CG (human) (P48736 whole entry, looked up): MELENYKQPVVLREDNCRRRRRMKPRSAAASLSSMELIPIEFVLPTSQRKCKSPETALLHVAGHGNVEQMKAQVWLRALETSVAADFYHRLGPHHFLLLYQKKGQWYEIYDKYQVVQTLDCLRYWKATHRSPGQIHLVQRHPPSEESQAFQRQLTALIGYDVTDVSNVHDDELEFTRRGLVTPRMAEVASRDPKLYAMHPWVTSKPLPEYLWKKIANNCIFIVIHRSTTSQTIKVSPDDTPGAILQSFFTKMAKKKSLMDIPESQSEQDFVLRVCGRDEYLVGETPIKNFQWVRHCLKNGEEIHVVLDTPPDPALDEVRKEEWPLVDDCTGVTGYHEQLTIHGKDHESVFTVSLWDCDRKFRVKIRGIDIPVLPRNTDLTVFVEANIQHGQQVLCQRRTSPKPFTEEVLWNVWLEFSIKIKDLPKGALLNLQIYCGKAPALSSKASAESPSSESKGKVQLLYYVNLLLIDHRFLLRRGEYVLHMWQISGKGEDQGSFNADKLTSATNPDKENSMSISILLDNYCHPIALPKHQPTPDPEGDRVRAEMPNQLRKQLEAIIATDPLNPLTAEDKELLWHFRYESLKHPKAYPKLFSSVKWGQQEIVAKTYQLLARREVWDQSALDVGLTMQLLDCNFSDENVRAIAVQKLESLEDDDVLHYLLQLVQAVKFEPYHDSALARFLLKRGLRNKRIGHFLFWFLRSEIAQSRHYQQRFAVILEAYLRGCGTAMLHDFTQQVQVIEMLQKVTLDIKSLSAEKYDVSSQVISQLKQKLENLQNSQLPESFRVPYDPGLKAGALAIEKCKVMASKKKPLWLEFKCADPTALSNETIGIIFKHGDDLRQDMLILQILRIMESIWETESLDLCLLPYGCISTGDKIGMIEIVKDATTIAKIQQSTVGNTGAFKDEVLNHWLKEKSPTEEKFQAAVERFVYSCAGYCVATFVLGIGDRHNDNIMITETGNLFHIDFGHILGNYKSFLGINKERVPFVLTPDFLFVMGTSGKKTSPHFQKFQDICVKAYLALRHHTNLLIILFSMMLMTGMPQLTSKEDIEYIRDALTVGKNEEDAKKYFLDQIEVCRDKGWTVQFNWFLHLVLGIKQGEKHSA

IC50	SMILES
< 600 nM	CC(=O)Nc1nc2c(s1)-c1nc(-c3cc(C#CCNC(=O)CC4CCCC4)ccc3Cl)ncc1CC2
< 600 nM	CC(=O)Nc1nc2c(s1)-c1nc(-c3cc(C#CCN4CCS(=O)(=O)CC4)ccc3Cl)ncc1CC2
< 600 nM	CC(=O)Nc1nc2c(s1)-c1nc(-c3cc(C#CCNC(=O)C(C)C)ccc3Cl)ncc1CC2
< 600 nM	CNC(=O)NCC#Cc1ccc(Cl)c(-c2ncc3c(n2)-c2sc(NC(C)=O)nc2CC3)c1
< 600 nM	CNC(=O)Nc1nc2c(s1)-c1nc(-c3cc(C#CC4(OC)CCN(C)CC4)ccc3Cl)ncc1CC2
< 600 nM	CC(=O)Nc1nc2c(s1)-c1nc(-c3cc(C#CC4(O)CCN(C)CC4)ccc3Cl)ncc1CC2
< 600 nM	CC(=O)Nc1nc2c(s1)-c1nc(-c3cc(C#CCCN(C)C(C)C)ccc3Cl)ncc1CC2
< 600 nM	CC(=O)Nc1nc2c(s1)-c1nc(-c3cc(C#CCNC(=O)NC(C)C)ccc3Cl)ncc1CC2
< 600 nM	CC(=O)Nc1nc2c(s1)-c1nc(-c3cc(C#CC4CCN(C(=O)C(C)C)CC4)ccc3Cl)ncc1CC2
< 600 nM	CC(=O)Nc1nc2c(s1)-c1nc(-c3cc(C#CCNC(=O)N4CCCC4)ccc3Cl)ncc1CC2
< 600 nM	COC1(C#Cc2ccc(Cl)c(-c3ncc4c(n3)-c3sc(NC(C)=O)nc3CC4)c2)CCN(C2CCCC2)CC1
< 600 nM	CC(=O)Nc1nc2c(s1)-c1nc(-c3cccc(C#CC4(O)CCN(C5CCCC5)CC4)c3)ncc1CC2
< 600 nM	CC(=O)Nc1nc2c(s1)-c1nc(-c3cc(C#CCCN(C)C(C)=O)ccc3Cl)ncc1CC2
< 600 nM	CC(=O)Nc1nc2c(s1)-c1nc(-c3cc(C#CC4(O)CCN(C(C)C)CC4)ccc3Cl)ncc1CC2
< 600 nM	CC(=O)Nc1nc2c(s1)-c1nc(-c3cc(C#CCNC(=O)CC4CCCCC4)ccc3Cl)ncc1CC2
< 600 nM	CC(=O)Nc1nc2c(s1)-c1nc(-c3cc(C#CCNC(=O)Cn4ccnc4)ccc3Cl)ncc1CC2
< 600 nM	CC(=O)Nc1nc2c(s1)-c1nc(-c3cc(C#CCNCC4CCCC4)ccc3Cl)ncc1CC2
< 600 nM	CC(=O)Nc1nc2c(s1)-c1nc(-c3cccc(C#CC4CCN(C)CC4)c3)ncc1CC2
< 600 nM	CC(=O)Nc1nc2c(s1)-c1nc(-c3cccc(C#CCNS(=O)(=O)C4CC4)c3)ncc1CC2
< 600 nM	CC(=O)Nc1nc2c(s1)-c1nc(-c3cccc(C#CCNC(=O)CC(C)(C)C)c3)ncc1CC2
< 600 nM	CC(=O)Nc1nc2c(s1)-c1nc(-c3cc(C#CCN(C)C(=O)C4CCCC4)ccc3Cl)ncc1CC2
< 600 nM	CC(=O)Nc1nc2c(s1)-c1nc(-c3cc(C#CCNC(=O)C4CC4)ccc3Cl)ncc1CC2

IC50	SMILES
< 600 nM	CC(=O)Nc1nc2c(s1)-c1nc(-c3cc(C#CC4CCN(C(=O)C5CCCC5)CC4)ccc3Cl)ncc1CC2
< 600 nM	CC(=O)Nc1nc2c(s1)-c1nc(-c3cc(C#CCC4CCCC4)ccc3Cl)ncc1CC2
< 600 nM	CC(=O)Nc1nc2c(s1)-c1nc(-c3cc(C#CC(C)(C)N)ccc3Cl)ncc1CC2
< 600 nM	CC(=O)Nc1nc2c(s1)-c1nc(-c3cc(C#CCNCc4ccccn4)ccc3Cl)ncc1CC2
< 600 nM	CC(=O)Nc1nc2c(s1)-c1nc(-c3cc(C#CCCCNC4CCN(C)CC4)ccc3Cl)ncc1CC2
< 600 nM	CC(=O)Nc1nc2c(s1)-c1nc(-c3cc(C#CC4(NC(C)=O)CCCCC4)ccc3Cl)ncc1CC2
< 600 nM	CC(=O)Nc1nc2c(s1)-c1nc(-c3cc(Cl)cc(C#CCN(C)C)c3)ncc1CC2
< 600 nM	CC(=O)Nc1nc2c(s1)-c1nc(-c3cc(C#CCNCC4CC4)ccc3Cl)ncc1CC2
< 600 nM	CCN(C)S(=O)(=O)NCC#Cc1ccc(Cl)c(-c2ncc3c(n2)-c2sc(NC(C)=O)nc2CC3)c1
< 600 nM	CC(=O)Nc1nc2c(s1)-c1nc(-c3cc(C#CCCCN4CCCC4)ccc3Cl)ncc1CC2
< 600 nM	CC(=O)Nc1nc2c(s1)-c1nc(-c3cc(C#Cc4ccccc4)ccc3Cl)ncc1CC2
< 600 nM	CCC(N)(C#Cc1ccc(Cl)c(-c2ncc3c(n2)-c2sc(NC(C)=O)nc2CC3)c1)CC
< 600 nM	CC(=O)Nc1nc2c(s1)-c1nc(-c3cc(C#CCN(C)S(=O)(=O)C4CC4)ccc3Cl)ncc1CC2
< 600 nM	COC1CCN(S(=O)(=O)NCC#Cc2ccc(Cl)c(-c3ncc4c(n3)-c3sc(NC(C)=O)nc3CC4)c2)CC1
< 600 nM	CC(=O)Nc1nc2c(s1)-c1nc(-c3cc(C#CCNC(=O)NC(C)(C)C)ccc3Cl)ncc1CC2
< 600 nM	CC(=O)Nc1nc2c(s1)-c1nc(-c3cc(C#CC4(N)CCCCC4)ccc3Cl)ncc1CC2
< 600 nM	CC(=O)Nc1nc2c(s1)-c1nc(-c3cc(C#CCCNC(C)C)ccc3Cl)ncc1CC2
< 600 nM	CC(=O)Nc1nc2c(s1)-c1nc(-c3cc(C#CCNC(=O)CN(C)C)ccc3Cl)ncc1CC2
< 600 nM	CC(=O)NCC#Cc1ccc(Cl)c(-c2ncc3c(n2)-c2sc(NC(C)=O)nc2CC3)c1
< 600 nM	CC(=O)Nc1nc2c(s1)-c1nc(-c3cc(C#CCNCC(C)C)ccc3Cl)ncc1CC2
< 600 nM	CC(=O)Nc1nc2c(s1)-c1nc(-c3cc(C#CCN4CC[S+]([O-])CC4)ccc3Cl)ncc1CC2
< 600 nM	CC(=O)Nc1nc2c(s1)-c1nc(-c3cc(C#CCNCC(C)(C)C)ccc3Cl)ncc1CC2

IC50	SMILES
< 600 nM	CC(=O)Nc1nc2c(s1)-c1nc(-c3cc(Cl)cc(C#CCN(C)S(C)(=O)=O)c3)ncc1CC2
< 600 nM	CC(=O)Nc1nc2c(s1)-c1nc(-c3cc(C#CCNC(=O)CC4CC4)ccc3Cl)ncc1CC2
< 600 nM	CC(=O)Nc1nc2c(s1)-c1nc(-c3cccc(C#CC4CCN(C5CCCC5)CC4)c3)ncc1CC2
< 600 nM	CC(=O)Nc1nc2c(s1)-c1nc(-c3cc(C#CCCCNCC(C)C)ccc3Cl)ncc1CC2
< 600 nM	CC(=O)Nc1nc2c(s1)-c1nc(-c3cc(C#CCN(C)S(=O)(=O)CC(F)(F)F)ccc3Cl)ncc1CC2
< 600 nM	COCC#Cc1ccc(Cl)c(-c2ncc3c(n2)-c2sc(NC(C)=O)nc2CC3)c1
< 600 nM	CC(=O)Nc1nc2c(s1)-c1nc(-c3cc(C#CCN(C)S(=O)(=O)C(C)C)ccc3Cl)ncc1CC2
< 600 nM	CC(=O)Nc1nc2c(s1)-c1nc(-c3cccc(C#CC4(O)CCN(C(C)C)CC4)c3)ncc1CC2
< 600 nM	CC(=O)Nc1nc2c(s1)-c1nc(-c3cc(C#CCN4CCN(C(C)=O)CC4)ccc3Cl)ncc1CC2
< 600 nM	CC(=O)Nc1nc2c(s1)-c1nc(-c3cccc(C#CC4(O)CCN(C)CC4)c3)ncc1CC2
< 600 nM	CC(=O)Nc1nc2c(s1)-c1nc(-c3cc(C#Cc4cccnc4)ccc3Cl)ncc1CC2
< 600 nM	CC(=O)Nc1nc2c(s1)-c1nc(-c3cc(C#CC4(N(C)C)CCCC4)ccc3Cl)ncc1CC2
< 600 nM	CC(=O)Nc1nc2c(s1)-c1nc(-c3cc(C#CC4(N(C)C)CCCCC4)ccc3Cl)ncc1CC2
< 600 nM	CC(=O)Nc1nc2c(s1)-c1nc(-c3cc(C#CCN)ccc3Cl)ncc1CC2
< 600 nM	CC(=O)Nc1nc2c(s1)-c1nc(-c3cc(C#CCNS(=O)(=O)C4CCCCC4)ccc3Cl)ncc1CC2
< 600 nM	CC(=O)Nc1nc2c(s1)-c1nc(-c3cc(C#CCCCN4CCOCC4)ccc3Cl)ncc1CC2
< 600 nM	CC(=O)Nc1nc2c(s1)-c1nc(-c3cc(C#CCNC(C)C)ccc3Cl)ncc1CC2
< 600 nM	CC(=O)Nc1nc2c(s1)-c1nc(-c3cc(C#CC4CCN(S(C)(=O)=O)CC4)ccc3Cl)ncc1CC2
< 600 nM	CC(=O)Nc1nc2c(s1)-c1nc(-c3cc(C#CCNC(=O)C4CCCCC4)ccc3Cl)ncc1CC2
< 600 nM	CC(=O)Nc1nc2c(s1)-c1nc(-c3cccc(C#CC4CCN(CC5CCCC5)CC4)c3)ncc1CC2
< 600 nM	CC(=O)Nc1nc2c(s1)-c1nc(-c3cc(C#CC4CCN(C(=O)NC(C)(C)C)CC4)ccc3Cl)ncc1CC2
< 600 nM	CCS(=O)(=O)NCC#Cc1ccc(Cl)c(-c2ncc3c(n2)-c2sc(NC(C)=O)nc2CC3)c1

IC50	SMILES
< 600 nM	CC(=O)Nc1nc2c(s1)-c1nc(-c3cc(C#CCN(C)C(=O)C(C)C)ccc3Cl)ncc1CC2
< 600 nM	CC(=O)Nc1nc2c(s1)-c1nc(-c3cc(C#CCCN(C)C)ccc3Cl)ncc1CC2
< 600 nM	CC(=O)Nc1nc2c(s1)-c1nc(-c3cc(C#CCCN4CCC(N(C)C)CC4)ccc3Cl)ncc1CC2
< 600 nM	CC(=O)Nc1nc2c(s1)-c1nc(-c3cccc(C#CCNC(=O)C4CCCC4)c3)ncc1CC2
< 600 nM	CC(=O)Nc1nc2c(s1)-c1nc(-c3cc(C#CCN(C)CC(C)C)ccc3Cl)ncc1CC2
< 600 nM	CC(=O)Nc1nc2c(s1)-c1nc(-c3cc(C#CCN4CCC(C(N)=O)CC4)ccc3Cl)ncc1CC2
< 600 nM	CCNC(=O)N1CCC(C#Cc2ccc(Cl)c(-c3ncc4c(n3)-c3sc(NC(C)=O)nc3CC4)c2)CC1
< 600 nM	CC(=O)Nc1nc2c(s1)-c1nc(-c3cc(C#CCNCc4ncccc4C)ccc3Cl)ncc1CC2
< 600 nM	CC(=O)Nc1nc2c(s1)-c1nc(-c3cc(C#CC4CCN(C(=O)N5CCCC5)CC4)ccc3Cl)ncc1CC2
< 600 nM	CC(=O)Nc1nc2c(s1)-c1nc(-c3cc(C#CC4CCNCC4)ccc3Cl)ncc1CC2
< 600 nM	C=CC#Cc1ccc(Cl)c(-c2ncc3c(n2)-c2sc(NC(C)=O)nc2CC3)c1
< 600 nM	CC(=O)Nc1nc2c(s1)-c1nc(-c3cc(C#CC4CCN(C(=O)NC(C)C)CC4)ccc3Cl)ncc1CC2
< 600 nM	COC1(C#Cc2ccc(F)c(-c3ncc4c(n3)-c3sc(NC(C)=O)nc3CC4)c2)CCCCC1
< 600 nM	CC(=O)Nc1nc2c(s1)-c1nc(-c3cccc(C#CCN(C)C)c3)ncc1CC2
< 600 nM	CC(=O)Nc1nc2c(s1)-c1nc(-c3cc(C#CCNS(=O)(=O)c4ccccc4)ccc3Cl)ncc1CC2
< 600 nM	CC(=O)Nc1nc2c(s1)-c1nc(-c3cc(C#CCN(C)C)ccc3Cl)ncc1CC2
< 600 nM	CC(=O)Nc1nc2c(s1)-c1nc(-c3cc(C#CCNS(=O)(=O)Cc4ccccc4)ccc3Cl)ncc1CC2
< 600 nM	CNC(=O)N1CCC(C#Cc2ccc(Cl)c(-c3ncc4c(n3)-c3sc(NC(C)=O)nc3CC4)c2)CC1
< 600 nM	CC(=O)Nc1nc2c(s1)-c1nc(-c3cc(C#CCCN4CCCCC4)ccc3Cl)ncc1CC2
< 600 nM	CC(=O)Nc1nc2c(s1)-c1nc(-c3cc(C#CC4(O)CCN(C5CCCC5)CC4)ccc3Cl)ncc1CC2
< 600 nM	CC(=O)Nc1nc2c(s1)-c1nc(-c3cc(C#CC4CCN(C(=O)N(C)C)CC4)ccc3Cl)ncc1CC2

SMILES	IC50
CC(=O)Nc1nc2c(s1)-c1nc(-c3cc(C#CCO[C@@H]4CN5CCC4CC5)ccc3Cl)ncc1CC2	< 600 nM
